Earlier results as cited in US20110053898A1, “TOPICAL COMPOSITION COMPRISING VITAMIN D ANALOGUE AND CORTICOSTEROIDS” (GLENMARK GENERICS LTD, priority 2009, published 2011).

Settings: vitamin-D3 derivative versus calcitriol

With C=C1/C(=C/C=C2\CCC[C@]3(C)[C@@H]([C@H](C)/C=C/C(O)C4CC4)CC[C@@H]23)C[C@@H](O)C[C@@H]1O (stereo partly shown) [Calcipotriene] as the molecule, how does the “Power relative to the natural hormone calcitriol” value read?
The value was “about 1%”.
